Measured values: US6395526B1, “DNA polymerase” (Takara Shuzo Co., Ltd., priority 1995, dated 2002)

Legend:
[1] = test system: activated DNA; assay: Optimum KCl and MgCl2 concentrations for DNA polymerase activity; type: biochemical, calf
Protocol: For a DNA polymerase preparation forming a complex of the translation products of ORF3 and ORF4 obtained in Example 3, namely the first DNA polymerase-constituting protein and the second DNA polymerase-constituting protein in a ratio at 1:1, optimum MgCl2 and KCl concentrations were firstly assayed. The DNA polymerase activity was assayed in a reaction system containing 20 mM Tris-HCl, pH 7.7, 2 mM 2-mercaptoethanol, 0.2 mg/ml activated DNA, and 40 μM each of dATP, dGTP, dCTP and dTTP in the presence of 2 mM MgCl2, while the KCl concentration was step by step increased from 0 to 200 mM KCl for each 20 mM increment. […] Next, the DNA polymerase activity was assayed in the same reaction system but in the presence of 60 mM KCl in this time, while the MgCl2 concentration was step by step increased from 0.5 to 25 mM MgCl2 for each 2.5 mM increment, to compare at each concentration.

[2] = test system: activated DNA; assay: Optimum pH and temperature of DNA polymerase activity; type: biochemical, calf; conditions: Tris-HCl in place of potassium phosphate; highest pH level used in the assay
Protocol: However, because the double stranded structure of the activated DNA used as a substrate for activity assay is destructed at higher temperatures, an accurate optimum temperature for the activity of the above enzyme has not been assayed. […] This level of the heat stability allows the use of the above enzyme for PCR method.
The optimum pH was then assayed. […], and preparing a reaction mixture comprising 20 mM potassium phosphate, 15 mM MgCl2, 2 mM 2-mercaptoethanol, 0.2 mg/ml activated DNA, 40 μM each of dATP, dCTP, dGTP and dTTP, and 60 nM [^3H]-dTTP. The results are shown in FIG. 3, wherein the abscissa indicates the pH, and the ordinate indicates the radioactivity incorporated in high-molecular DNA.

DNA Polymerase of the Present Invention: complex of first (ORF3, SEQ ID NO:2) and second (ORF4, SEQ ID NO:4) DNA polymerase-constituting proteins from Pyrococcus furiosus
MgCl2 concentration of maximum activity ([1]; in the absence of KCl): 17.5 mM
KCl concentration of maximum activity ([1]; in the presence of 2 mM MgCl2, 20 mM Tris-HCl pH 7.7): 60 mM
MgCl2 concentration of maximum activity ([1]; in the presence of 60 mM KCl): 10 mM
pH of maximum activity [2]: 8.02
